According to EP3183252B1, “OXALATE SALT OF RUXOLITINIB” (ratiopharm GmbH, priority 2014, dated 2016):
Structures can show the parent of a compound that is named as a salt.

What was measured:
Assay type in all cases: physicochemical
[1] = Storage stability: chemical purity by HPLC/UV; conditions: for Chemical purity ([area-%] at λ=230 nm): 40°C/75% rh
Description: (§1) Samples were stored in closed and open containers at 25°C/60% rh and at 40°C/75% rh and analyzed after 4, 8 and 12 weeks.
The results of determination of the chemical purity during storage at 40°C/75% rh are summarized. Both salts remained chemically stable when stored under these conditions. Therefore, the analysis of samples, which were stored at 25°C/60% rh, was omitted.

[2] = pH-dependencies of solubility at 37°C; conditions: for solubility at 0.5 h / solubility at 1 h / solubility at 24 h / pH dependency of solubility (in words) / solubility: 37°C; for solubility at 1 h / solubility at 24 h: thermodynamic from solid; for pH dependency of solubility (in words): pH 4.5 and 6.8
Source text: The intestinal tract obeys different pH ranges, which vary from pH 1 to 2 of the empty stomach, pH 3-5 for stomach filled with chyme, to pH 5-7.5 of the colon.

[3] = Dynamic vapor sorption experiment (hygroscopicity)
Description: Vapour sorption experiments were performed in the instrument SPSx-1µ (Projekt Messtechnik, Ulm, Germany) at temperature of 25°C and the humidity cycles as shown below.
A dynamic vapor sorption experiment was performed with Ruxolitinib oxalate. At a constant temperature of 25°C, the substance was exposed to two cycles of varying relative humidity (rh) (40% → 0% →95% (75% r.h. kept constant for 48h) → 0% →40%). Figure 3a presents the relative weight change as a function of time and relative humidity and in […] changes are illustrated as a function of humidity.

[4] = Storage stability: solid state by XRPD analysis
Description: The sample was analyzed on a D8 Advance X-ray powder diffractometer (Bruker-AXS, Karlsruhe, Germany). The sample holder was rotated in a plane parallel to its surface at 20 rpm during the measurement. The raw data were analyzed with the program EVA (Bruker-AXS, Germany). The samples were layered onto a silicon specimen holder
as §1
The solid-state stability was investigated by XRPD analysis. The results of evaluation are summarized. Ruxolitinib phosphate and Ruxolitinib oxalate remained unchanged throughout the observation period.

[5] = 20mM sodium acetate pH 4.5, 0.5 h
[6] = aqueous buffer, 20mM sodium acetate pH 4.5, 1 h
[7] = aqueous buffer, 20mM sodium acetate pH 4.5, 24 h
[8] = aqueous buffer, 50mM KH2PO4 pH 6.8, 1 h
[9] = aqueous buffer, 50mM KH2PO4 pH 6.8, 24 h
[10] = pH 1.2, simulated gastric fluid, 0.1M HCl pH1.2, 1 h
[11] = pH 1.2, simulated gastric fluid, 0.1M HCl pH1.2, 24 h

Row | SMILES | Chemical purity ([area-%] at λ=230 nm) ([1]; closed, 4 weeks) | Chemical purity ([area-%] at λ=230 nm) ([1]; closed, 8 weeks) | Chemical purity ([area-%] at λ=230 nm) ([1]; closed, 12 weeks) | Chemical purity ([area-%] at λ=230 nm) ([1]; closed, t = 00 (= initial)) | Chemical purity ([area-%] at λ=230 nm) ([1]; open, 4 weeks) | Chemical purity ([area-%] at λ=230 nm) ([1]; open, 8 weeks) | Chemical purity ([area-%] at λ=230 nm) ([1]; open, 12 weeks) | Chemical purity ([area-%] at λ=230 nm) ([1]; open, t = 00 (= initial)) | solubility at 0.5 h [2, 5] [mg/mL] | solubility at 0.5 h ([2]; 50mM KH2PO4 pH 6.8, 0.5 h) [mg/mL] | solubility at 1 h [2, 6] [mg/mL] | solubility at 24 h [2, 7] [mg/mL] | solubility at 1 h [2, 8] [mg/mL] | solubility at 24 h [2, 9] [mg/mL] | solubility at 1 h [2, 10] [mg/mL] | solubility at 24 h [2, 11] [mg/mL] | solubility at 0.5 h ([2]; pH 1.2, 0.1M HCl pH1.2, 0.5 h) [mg/mL] | pH dependency of solubility (in words) [2] | also measured
1 | N#CC[C@H](C1CCCC1)n1cc(-c2ncnc3[nH]ccc23)cn1 [Ruxolitinib oxalate] | 100,00% area-% | 99,95% area-% | 99,90% area-% | 99,89 area-% | 100,00% area-% | 99,91% area-% | 99,85% area-% | 99,89 area-% | 24.1 | 21.5 | 27.7 | 29.9 | 23.5 | 23.9 | 56.3 | 57.4 | 57.8 | – | stable upon storage for ([1]; 25°C and 60% relative humidity (RH)): at least 12 weeks; stable upon storage for ([1]; 40°C/75% RH): at least 12 weeks; solubility overall (in words) [2]: good solubility; solid state by XRPD analysis after the DVS experiment, compared to prior [3]: identical
2 | N#CC[C@H](C1CCCC1)n1cc(-c2ncnc3[nH]ccc23)cn1 (stereo in doubt) [Ruxolitinib maleate] | – | – | – | – | – | – | – | – | 2.8 | 2.9 | 3.2 | 2.4 | 2.9 | 2.5 | 12 | 12.2 | 12.5 | distinct pH dependency | –
3 | N#CC[C@H](C1CCCC1)n1cc(-c2ncnc3[nH]ccc23)cn1 (stereo in doubt) [Ruxolitinib sulfate] | – | – | – | – | – | – | – | – | – | – | – | – | – | – | – | – | – | less pH dependency | solubility ([2]; 20mM sodium acetate pH 4.5, 0.5 h, 30 min): 10.4 mg/mL; solubility ([2]; 20mM sodium acetate pH 4.5, 1 h, 60 min): 10.6 mg/mL; solubility ([2]; 20mM sodium acetate pH 4.5, 24 h, 1440 min): 9.5 mg/mL; solubility ([2]; 50mM KH2PO4 pH 6.8, 0.5 h, 30 min): 9.6 mg/mL; solubility ([2]; 50mM KH2PO4 pH 6.8, 1 h, 60 min): 9.8 mg/mL; solubility ([2]; 50mM KH2PO4 pH 6.8, 24 h, 1440 min): 8.3 mg/mL; solubility ([2]; 0.1M HCl pH1.2, 0.5 h, 30 min): 18.5 mg/mL; solubility ([2]; 0.1M HCl pH1.2, 1 h, 60 min): 18.5 mg/mL; solubility ([2]; 0.1M HCl pH1.2, 24 h, 1440 min): 16.7 mg/mL
4 | N#CC[C@H](C1CCCC1)n1cc(-c2ncnc3[nH]ccc23)cn1 [Ruxolitinib phosphate] | 99,04% area-% | 99,20% area-% | 99,03% area-% | 99,05 area-% | 99,13% area-% | 99,28% area-% | 99,10% area-% | 99,05 area-% | – | – | – | – | – | – | 43.2 | 44 | – | – | solubility at 1 h ([2]; 20mM sodium acetate buffer, aqueous buffer, 20mM sodium acetate pH 4.5, 1 h): 6 mg/mL; solubility at 24 h ([2]; 20mM sodium acetate buffer, aqueous buffer, 20mM sodium acetate pH 4.5, 24 h): 6.8 mg/mL; solubility at 1 h ([2]; 50mM KH2PO4 buffer, aqueous buffer, 50mM KH2PO4 pH 6.8, 1 h): 4.7 mg/mL; solubility at 24 h ([2]; 50mM KH2PO4 buffer, aqueous buffer, 50mM KH2PO4 pH 6.8, 24 h): 5.7 mg/mL; solubility (in words) ([2]; higher pH points than pH 1.2): considerably less solubility; solubility (in words) ([2]; pH 1.2): good solubility; Evaluation of XRPD analysis ([4]; 25°C/60% rh, closed, 4 weeks): unchanged; Evaluation of XRPD analysis ([4]; 25°C/60% rh, closed, 8 weeks): unchanged; Evaluation of XRPD analysis ([4]; 25°C/60% rh, closed, 12 weeks): unchanged; Evaluation of XRPD analysis ([4]; 25°C/60% rh, open, 4 weeks): unchanged; Evaluation of XRPD analysis ([4]; 25°C/60% rh, open, 8 weeks): unchanged; Evaluation of XRPD analysis ([4]; 25°C/60% rh, open, 12 weeks): unchanged; Evaluation of XRPD analysis ([4]; 40°C/75% rh, closed, 4 weeks): unchanged; Evaluation of XRPD analysis ([4]; 40°C/75% rh, closed, 8 weeks): unchanged; Evaluation of XRPD analysis ([4]; 40°C/75% rh, closed, 12 weeks): unchanged; Evaluation of XRPD analysis ([4]; 40°C/75% rh, open, 4 weeks): unchanged; Evaluation of XRPD analysis ([4]; 40°C/75% rh, open, 8 weeks): unchanged; Evaluation of XRPD analysis ([4]; 40°C/75% rh, open, 12 weeks): unchanged
